Measured values: US20260284153A1, “COMPOSITION COMPRISING GV1001 FOR PREVENTING OR TREATING PERIODONTAL DISEASES AND DISORDERS CAUSED BY PERIODONTAL DISEASES” (GEMVAX & KAEL CO., LTD., priority 2023, published 2026)

Legend:
[1] = tested on: Porphyromonas gingivalis-induced periodontitis; experiment: Periodontitis efficacy in Pg-treated, ligature-placed, high-fat-diet ApoE-/- mouse model; assay type: in vivo, ApoE−/− mice (C57BL/6 background)
Source text: (§1) An animal model was created using ApoE^−/^− mice (C57BL/6 background, male, 4 weeks old).
(§2) Animal models were fed with a high-fat diet (HFD), and a 6-0 silk ligature was placed around the maxillary second molar to create a gingival pocket using the ligature placement method for 1 week, followed by treatment with Porphyromonas gingivalis (Pg) or PBS for 5 weeks.
(§3) The depth of the periodontal pocket, the expression level of inflammatory cytokines in the gingival tissue (mRNA level, IF staining), the aggregation of Porphyromonas gingivalis, Porphyromonas gingivalis LPS, Kgp and RgpB in the gingival tissue, the amount of alveolar bone loss, and the number of osteoclasts in the alveolar bone were determined. Further, the effect on osteoclastogenesis was confirmed in an in vitro test.

Raw264.7 = experiment: In vitro osteoclastogenesis of macrophage cell line induced into osteoclasts; assay type: cell-based; details: Raw264.7 induced into osteoclasts; FIGS. 6A to 6E
Procedure: as §3
To confirm the efficacy of GV1001 on alveolar bone loss, μCT was used to determine alveolar bone loss in a periodontitis-induced animal model (FIGS. 4A to 4C), and the number of osteoclasts in the alveolar bone was determined by TRAP staining (FIGS. 5A and 5B).

[2] = tested on: atherosclerosis induced by periodontitis; experiment: Periodontitis-related atherosclerosis efficacy in Pg-treated ApoE-/- mouse model; assay type: in vivo, ApoE−/− mice (C57BL/6 background); details: GV1001 2 mg/kg i.p., vs control
Source text: as §1, §2
(§4) The expression levels of inflammatory cytokines in serum and arterial tissue, the aggregation of Porphyromonas gingivalis, Porphyromonas gingivalis LPS, Kgp and RgpB in arterial tissue, changes in cholesterol levels in serum, and lipid deposition (atherosclerosis) in the arterial wall were determined. In vitro, inhibition of EndMT and inhibition of macrophage uptake of dil-ox-LDL were evaluated. Further, the CD47 expression levels were determined in the aortic root in vivo and in vitro.

[3] = tested on: human umbilical vein endothelial cells (HUVECs); experiment: EndMT of HUVECs stimulated with TNF-α and Porphyromonas gingivalis LPS; assay type: cell-based; details: FIGS. 13A, 13B
Procedure: as §4
It is known that when endothelial cells (ECs) change their phenotype into mesenchymal cells (MCs) through endothelial-to-mesenchymal transition (EndMT), it induces various vascular diseases (atherosclerosis, pulmonary hypertension, fibrosis, etc.). TNF-α is known as a cytokine involved in this process. In the present invention, it was confirmed that when human umbilical vein endothelial cells (HUVECs) were stimulated with TNF-α and Porphyromonas gingivalis LPS, ECs (marker; CD31) were decreased while MCs (marker; FSP-1) were increased due to EndMT (FIGS. 13A and 13B). • Control group: EndMT of HUVECs was confirmed to progress by TNF-α and Porphyromonas gingivalis LPS. • GV1001 administration group: The EndMT progression of HUVECs was confirmed to be inhibited by GV1001. […]

[4] = tested on: macrophages differentiated from THP-1 (human monocyte cell line) cells; experiment: ox-LDL uptake by macrophages differentiated from THP-1 cells; assay type: cell-based; details: induced by TNF-α and Porphyromonas gingivalis LPS; THP-1-derived macrophages; FIGS. 14A, 14B
Procedure: as §4
It is known that the formation of foam cells by macrophages in response to LDL and TNF-α is an important process in atherosclerosis. […] As a result, this means that the inhibition of atherogenesis by GV1001 is partly due to its inhibitory effect on foam cell formation.

[5] = tested on: CD47 in human coronary artery smooth muscle cells (HCASMC); experiment: CD47 expression in HCASMC treated with TNF-α and Porphyromonas gingivalis LPS; assay type: cell-based; details: TNF-α and Porphyromonas gingivalis LPS treatment; FIGS. 16A to 16F
Procedure: as §4
CD47, a representative anti-phagocytic factor, is known to interfere with the removal of cancer cells by macrophages, and overexpression of CD47 is known to cause atherosclerosis. In the present invention, the expression level of CD47 in the aortic root was confirmed in an animal model of periodontitis induction (FIGS. 15A and 15B). […] 2.3 Effect of GV1001 in Alzheimer's Disease Associated with Periodontitis

[6] = tested on: Alzheimer's disease induced by periodontitis; experiment: Periodontitis-related Alzheimer's disease efficacy in Pg-treated ApoE-/- mouse model; assay type: in vivo, ApoE−/− mice (C57BL/6 background); details: GV1001 2 mg/kg i.p., vs control
Source text: as §1, §2
The expression levels of inflammatory cytokines, the aggregation of Porphyromonas gingivalis, Porphyromonas gingivalis LPS and Kgp, RgpB, and the accumulation of Aβ42 and p-Tau in brain tissue were confirmed.

[7] = tested on: gingipain (RgpA, RgpB, Kgp); experiment: In vitro expression of gingipain in Porphyromonas gingivalis; assay type: cell-based; details: FIG. 23
Procedure: To understand the fundamental mechanism of Porphyromonas gingivalis colony formation, and the reduction of Porphyromonas gingivalis LPS and gingipain by GV1001 in gingival tissues, arterial walls and brain, the effect of GV1001 on the expression of gingipain, which is an enzyme important for the growth and tissue invasion of Porphyromonas gingivalis, was investigated. […] Very low doses (5-30 μM) of GV1001 reduced the expression of RgpA and RgpB by approximately 5 times and the expression of Kgp by approximately 3 times, compared with the control group (Porphyromonas gingivalis 16S IRNA) (FIG. 23).

[8] = GV1001 2 mg/kg i.p., vs control, FIGS. 3A, 3B
[9] = 5-30 μM GV1001, compared with the control group (Porphyromonas gingivalis 16S IRNA)

Question: “GV1001: peptide consisting of 16 amino acids, SEQ ID NO: 1, derived from human telomerase reverse transcriptase (hTERT) (EARPALLTSRLRFIPK; UniProt O14746 611-626, looked up, fragment)” was tested. Which “inflammatory cytokine (IL-1β, TNF-α, IL-6) mRNA levels in periodontal tissue” value ([1]; GV1001 2 mg/kg i.p. 3 times/week for 10 weeks, vs periodontitis control, FIG. 1) did it give?
Answer: significantly reduced

Question: And the “inflammatory cytokines (IL-1β, TNF-α, IL-6, GM-CSF, VEGF, IL-17, KC) in serum” value ([1]; GV1001 2 mg/kg i.p., all cytokines, vs control, FIGS. 7A, 7B)?
Answer: significantly suppressed

Question: And the “Porphyromonas gingivalis LPS in gingival tissue” value [1, 8]?
Answer: significantly reduced

Question: What about the “gingipain (Kgp, RgpB) in gingival tissue” value [1, 8] of the same substance?
Answer: significantly reduced

Question: What about the “number of Porphyromonas gingivalis colonies in gingival tissue” value [1, 8] of the same substance?
Answer: significantly reduced

Question: What about the “alveolar bone loss (μCT)” value ([1]; GV1001 2 mg/kg i.p., vs control, FIGS. 4A to 4C) of the same substance?
Answer: significantly reduced

Question: What about the “osteoclastogenesis in alveolar bone (number of osteoclasts, TRAP staining)” value ([1]; GV1001 2 mg/kg i.p., vs control, FIGS. 5A, 5B) of the same substance?
Answer: significantly inhibited

Question: What about the “inflammatory cytokine expression in periodontal tissue by fluorescent staining” value ([1]; GV1001 2 mg/kg i.p., vs periodontitis control, FIGS. 2A, 2B) of the same substance?
Answer: decrease in cytokine expression was confirmed

Question: What about the osteoclastogenesis in vitro (Raw264.7) of the same substance?
Answer: significantly inhibited

Question: What about the “inflammatory cytokine (IL-1β, TNF-α, IL-6) mRNA levels in arterial tissue” value ([2]; FIG. 8) of the same substance?
Answer: significantly reduced

Question: What about the “inflammatory cytokine expression in arterial tissue by fluorescent staining” value ([2]; FIGS. 9A, 9B) of the same substance?
Answer: decrease in cytokine expression was confirmed

Question: And the “Porphyromonas gingivalis LPS in the arterial wall” value ([2]; FIGS. 10A, 10B)?
Answer: significantly reduced

Question: What about the “gingipain (Kgp, RgpB) in the arterial wall” value ([2]; FIGS. 10A, 10B) of the same substance?
Answer: significantly reduced

Question: What about the “number of Porphyromonas gingivalis colonies in the arterial wall” value ([2]; FIGS. 10A, 10B) of the same substance?
Answer: significantly reduced

Question: What about the “level of low-density lipoprotein (LDL) in serum” value ([2]; FIGS. 11A, 11B) of the same substance?
Answer: significantly reduced

Question: What about the “level of total cholesterol (TC) in serum” value ([2]; FIGS. 11A, 11B) of the same substance?
Answer: significantly reduced

Question: What about the “expression level of CD47 in the aortic root” value ([2]; FIGS. 15A, 15B) of the same substance?
Answer: significantly reduced

Question: What about the “intravascular lipid deposition, wall of the aorta-iliac bifurcation” value ([2]; Sudan IV and Oil Red O staining, FIGS. 12A, 12B) of the same substance?
Answer: significantly suppressed

Question: And the “EndMT progression of HUVECs (CD31, FSP-1 markers)” value [3]?
Answer: inhibited

Question: What about the ox-LDL uptake [4] of the same substance?
Answer: significantly inhibited

Question: What about the “expression level of CD47 in HCASMC” value [5] of the same substance?
Answer: significantly reduced

Question: And the “inflammatory cytokine (IL-1β, TNF-α, IL-6) mRNA levels in brain tissue” value ([6]; FIG. 17)?
Answer: significantly reduced

Question: And the “inflammatory cytokine expression in brain tissue by fluorescent staining” value ([6]; FIGS. 18A to 19B)?
Answer: decrease in cytokine expression was confirmed

Question: And the “Porphyromonas gingivalis LPS in the cerebral cortex and hippocampus” value ([6]; FIGS. 20A to 21B)?
Answer: significantly reduced

Question: What about the “gingipain (Kgp, RgpB) in the cerebral cortex and hippocampus” value ([6]; FIGS. 20A to 21B) of the same substance?
Answer: significantly reduced

Question: What about the “number of Porphyromonas gingivalis colonies in the cerebral cortex and hippocampus” value ([6]; FIGS. 20A to 21B) of the same substance?
Answer: significantly reduced

Question: And the “accumulation of Aβ42 in the cerebral cortex and hippocampus” value ([6]; FIGS. 22A, 22B)?
Answer: significantly reduced

Question: What about the “accumulation of p-Tau in the cerebral cortex and hippocampus” value ([6]; FIGS. 22A, 22B) of the same substance?
Answer: significantly reduced

Question: What about the “reduction of expression of Kgp” value [7, 9] of the same substance?
Answer: approximately 3 times

Question: And the “reduction of expression of RgpA” value [7, 9]?
Answer: approximately 5 times

Question: What about the “reduction of expression of RgpB” value [7, 9] of the same substance?
Answer: approximately 5 times

Question: What about the “expression of gingipain in vitro” value [7] of the same substance?
Answer: markedly inhibited
